Measured values from patent publication US20260109721A1, “IONIZABLE CATIONIC LIPIDS INCORPORATING SILICON: SYNTHESIS AND LNP FORMULATION” (priority 2023, published 2026).

These compounds were tested on HeLa cells (assay: Cell viability assessment with resazurin assay (Method A)). Conditions: not given.
Format: cell-based
Protocol: (§1) The synthesized lipids were tested in term of in vitro transfection efficacy and toxicity on HeLa cells. In order to perform the mentioned biological tests, appropriate LNPs had to be formulated from the synthesized lipids. The formulation technique was different in Method A and B. The particle size, polydispersity index (PDI) and zeta potential of resulting LNPs were determined by means of Dynamic Light Scattering technique (DLS). Prior to biological testing the encapsulation efficiency (EE) of the loaded LNPs was determined by using RiboGreen RNA assay. In case of Method A Luc mRNA while in case of Method B GFP mRNA was transfected into the cells. In parallel with the transfection experiments, toxicity of the investigated LNPs was determined, in case of Method A resazurin assay while in case of Method B MTT assay was used. Additionally, the toxicity of the lipids was investigated on HepG2 cells and IC50 values were determined.
This protocol is used to determine the metabolic activity of cells as a measure for cell viability after exposure to potentially toxic substances. Resazurin is converted in mitochondria by reduction to resorufin, which has a much higher fluorescence at ˜600 nm compared to unconverted resazurin. A lower amount/percentage of conversion is correlated with reduced cellular metabolism and indirectly to cellular death and toxicity. Care must be taken with interpretation of the read-out, as 50% reduction in resazurin conversion may mean 50% reduction of cellular metabolism of 100% alive cells, or 50% of cells dead, and any combination in between.
• 1. Prepare 0.25 mg/ml stock solution resazurin in fresh cell culture medium. Resazurin is auto-reducing over time in solution, especially in medium, and fresh stocks should be prepared every 2-3 days. Stocks should be stored at 4° C. and protected from light. For HeLa cells, DMEM/F12 with 10% FCS is used. • 2. Dilute stock solution 10× in fresh cell culture medium to 0.025 mg/ml->ready for application on cells. For HeLa cells, DMEM/F12 with 10% FCS is used. • 3. Collect 96-well plate and replace cell-culture spent medium with 100 μl per well resazurin solution. Add some resazurin solution for background measurement in wells not containing cells. • 4. Incubate for 50 minutes in incubator at 37° C., 5% CO2, 95% RH. • 5. Transfer resazurin solution to a fresh 96- or 384-well plate. • 6. Measure in plate reader using 540/25 nm (excitation) and 610/40 nm (emission) using standard settings (PTM low/OD-1.0). • 7. Subtract the average background measurement from all samples. Set the average of the negative controls (well receiving OptiMEM only during transfection) to 100% and express all values as percentage of the control activity. Typically, at lower levels of treatment, elevation of metabolic activity is shown, whereas for toxic substances, at toxic concentrations sigmoidal curves can be obtained, with lower activity indicating higher toxicity.
In the case of CCCCCCCCC(CCCCCC)C(=O)OCCCCCCN(CCCCO)CCCCCCOC(=O)C(CCCCCC)CCCCCCCC (stereo not shown) [ALC-0315, reference compound], the “Cell Viability % (Average metabolic rate over all doses, Resazurin)” value (“Cell Viability %” below) is reported as 97%.

Same assay, conditions: human
In the case of CCCCC/C=C\C/C=C\CCCCCCCCOC(CCCCCCC/C=C\C/C=C\CCCCC)O[Si](C)(C)OCCCCCCN1CCN(CCCCCCO[Si](C)(C)OC(CCCCCCC/C=C\C/C=C\CCCCC)OCCCCCCCC/C=C\C/C=C\CCCCC)CC1 (stereo not shown) [Example 70, 1,4-bis((20Z,23Z)-10-((8Z,11Z)-heptadeca-8,11-dien-1-yl)-8,8-dimethyl-7,9,11-trioxa-8-silanonacosa-20,23-dien-1-yl)piperazine], the “Cell Viability %” value is reported as 99%.
CCCCCCCC/C=C\CCCCCCCCOC(CCCCCCCCCCCCCCC)O[Si](C)(C)OCCCCCCN(CCO)CCO (stereo not shown) [Example 41, (Z)-3-(2-hydroxyethyl)-11,11-dimethyl-13-pentadecyl-10,12,14-trioxa-3-aza-11-siladotriacont-23-en-1-ol] was tested, and the “Cell Viability %” value was 98%.
In the case of CCCCCCCC/C=C\CCCCCCCCOC(=O)C(C)(C)CC(OCCCCCCCC/C=C\CCCCCCCC)O[Si](C)(C)OCCCCCCN(CCO)CCO (stereo not shown) [Example 84, (Z)-octadec-9-en-1-yl 1-hydroxy-3-(2-hydroxyethyl)-11,11,15,15-tetramethyl-13-(((Z)-octadec-9-en-1-yl)oxy)-10,12-dioxa-3-aza-11-silahexadecan-16-oate], the “Cell Viability %” value is reported as 114%.
CCCCC/C=C\C/C=C\CCCCCCCCOC(CCCCCCC/C=C\C/C=C\CCCCC)O[Si](C)(C)OCCCCCCN(C)Cc1cn(C2[C@H](O)O[C@H](CO)[C@@H](O)[C@@H]2O)nn1 (stereo partly drawn) [Example 68, (4R,5S,6R)-3-(4-((22Z,25Z)-12-((8Z,11Z)-heptadeca-8,11-dien-1-yl)-2,10,10-trimethyl-9,11,13-trioxa-2-aza-10-silahentriaconta-22,25-dien-1-yl)-1H-1,2,3-triazol-1-yl)-6-(hydroxymethyl)tetrahydro-2H-pyran-2,4,5-triol] was tested, and the “Cell Viability %” value was 92%.
CCCCC/C=C\C/C=C\CCCCCCCCOC(CCCCCN(CCO)CCO)O[Si](C)(C)OCCCCCCCC/C=C\C/C=C\CCCCC (stereo not shown) [Example 39, (21Z,24Z)-3-(2-hydroxyethyl)-11,11-dimethyl-9-(((9Z,12Z)-octadeca-9,12-dien-1-yl)oxy)-10,12-dioxa-3-aza-11-silatriaconta-21,24-dien-1-ol] was tested, and the “Cell Viability %” value was 102%.
In the case of CCCCC/C=C\C/C=C\CCCCCCCCOC(CCCCCCC/C=C\C/C=C\CCCCC)O[Si](C)(C)OCCCCCCN(CCO)CCN(CCO)CCCCCCO[Si](C)(C)OC(CCCCCCC/C=C\C/C=C\CCCCC)OCCCCCCCC/C=C\C/C=C\CCCCC (stereo not shown) [Example 71, (26Z,29Z)-16-((8Z,11Z)-heptadeca-8,11-dien-1-yl)-3-((20Z,23Z)-10-((8Z,11Z)-heptadeca-8,11-dien-1-yl)-8,8-dimethyl-7,9,11-trioxa-8-silanonacosa-20,23-dien-1-yl)-6-(2-hydroxyethyl)-14,14-dimethyl-13,15,17-trioxa-3,6-diaza-14-silapentatriaconta-26,29-dien-1-ol], the “Cell Viability %” value is reported as 85%.
For CCCCCCCC/C=C\CCCCCCCCOC(=O)C(C)(C)CC(OCCCCCCCC/C=C\CCCCCCCC)O[Si](C)(C)OCCCCCCN1CCOCC1 (stereo not shown) [Example 85, (Z)-octadec-9-en-1-yl 4-((dimethyl((6-morpholinohexyl)oxy)silyl)oxy)-2,2-dimethyl-4-(((Z)-octadec-9-en-1-yl)oxy)butanoate], the “Cell Viability %” value was 110%.
For CCCCC/C=C\C/C=C\CCCCCCCCOC(CCCCCCC/C=C\C/C=C\CCCCC)O[Si](C)(C)OCCCCCCN(C)CCCCO (stereo not shown) [Example 60, (25Z,28Z)-15-((8Z,11Z)-heptadeca-8,11-dien-1-yl)-5,13,13-trimethyl-12,14,16-trioxa-5-aza-13-silatetratriaconta-25,28-dien-1-ol], the “Cell Viability %” value was 88%.
For CCCCCCCC/C=C\CCCCCCCCOC(=O)C(C)(C)CCC(OCCCCCCCC/C=C\CCCCCCCC)O[Si](C)(C)OCCCCCCN1CCOCC1 (stereo not shown) [Example 95, (Z)-octadec-9-en-1-yl 5-((dimethyl((6-morpholinohexyl)oxy)silyl)oxy)-2,2-dimethyl-5-(((Z)-octadec-9-en-1-yl)oxy)pentanoate], the “Cell Viability %” value was 106%.
In the case of CCCCCCCC/C=C\CCCCCCCC(OCC(CCCCCC)CCCCCCCC)O[Si](C)(C)OCCCCCCN(CCO)CCO (stereo not shown) [Example 50, (Z)-13-(heptadec-8-en-1-yl)-16-hexyl-3-(2-hydroxyethyl)-11,11-dimethyl-10,12,14-trioxa-3-aza-11-silatetracosan-1-ol], the “Cell Viability %” value is reported as 98%.
In the case of CCCCCCCC/C=C\CCCCCCCC(OCC(CCCCCCCC)SCCCCC)O[Si](C)(C)OCCCCCCN(CCO)CCO (stereo not shown) [Example 72, (Z)-13-(heptadec-8-en-1-yl)-3-(2-hydroxyethyl)-11,11-dimethyl-16-octyl-10,12,14-trioxa-17-thia-3-aza-11-siladocosan-1-ol], the “Cell Viability %” value is reported as 107%.

What follows are compounds tested on HeLa cells (assay: Transfection efficiency with GFP mRNA (Method B)). Conditions: 24 h, GFP fluorescence.
Format: cell-based
Protocol: as §1
In 1.5 mL eppendorf: • a) Place 2.9 uL of 0.33 ug/uL mRNA solution into Eppendorf tube • b) Add 1.94 μL of supplied ethanolic solution of tested lipid and immediately mix by working pipette up-and-down several times (work the solution up and down several times before transferring to saturate pipette tip with ethanol vapors) • c) Incubate for 15 minutes. • d) Add 536 μL of MEM. Mix the solution by vortexing. • e) Incubate for 30 minutes.
• MEM (Sigma, cat #M5650-500 mL) • Fetal Bovine Serum, FBS (Sigma, cat #F7524-500 mL) • Solutions of the formulations (see above) • Dilutor: 10 mL MEM+0,036 mL ethanol • Phosphate buffered saline, PBS
• 1. Fill the edge wells of a 96-well plate with 100 μL media. • 2. Plate 10,000 HeLa cells per well in 96 well plate. […] Total 60 wells should be seeded. Incubate in MEM+10% FBS at 37° C. in a humidified atmosphere with 5% CO2 for 24 h. • 3. Examine under the microscope. Confluency must be at or nearly 80%. • 4. Gently remove the media (aspirate). Place 50 μL of the following formulations: • a) 6 wells with dilutor—negative control • b) 6 wells with Lipofectamine-50—positive control. • c) 6 wells with Lipofectamine-6—secondary positive control • d) 6 wells per formulations—test samples. • 5. Incubate plate for 1 hours at 37° C. • 6. Add 50 μL of MEM+20% FBS (which will become 10% upon dilution). • 7. Place plates into the incubator at 37° C. in a humidified atmosphere with 5% CO2 for 23 h (total 24 hours of incubation). • 8. After 24 h, aspirate the media without disturbing the cells. Gently wash cells with 100 μL of warm PBS. Aspirate PBS. • 9. Add 100 μL of fresh PBS into washed cells and read GFP fluorescence on the plate reader. • 10. This can be followed with viability assessment with the MTT assay. Cell Viability Assessment with MTT Assay (Method B)
With CCCCCCCCC(CCCCCC)C(=O)OCCCCCCN(CCCCO)CCCCCCOC(=O)C(CCCCCC)CCCCCCCC (stereo not shown) [ALC-0315, reference compound] the “Transfection 89 ng mRNA/well” value was 15892.1.
